# According to US9309242B2, “Substituted pyrido[2,3-b]pyrazines as FGFR kinase inhibitors” (priority 2011, dated 2016):
# Like-named read-outs stand apart in the source and are kept apart here.
# Columns and labels:
# FGFR2 (h) = FGFR2 (h) (Homo sapiens, UniProt P21802); assay: FGFR2 (enzymatic assay), TR-FRET; format: biochemical; conditions: enzymatic assay, read-out: FGFR 2 pIC50 (converted)
# Outline: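 Human FGFR2 (150 ng/ml) was incubated with 500 nM Btn-Flt3 substrate and 0.4 μM ATP in 50 mM HEPES pH 7.5, 6 mM MnCl2, 1 mM DTT, 0.1 mM Na3VO4, 0.01% Triton-X-100. Compound was present at 1% DMSO final.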
# [1] = molecular target: T1, Ba/F3-FGFR1-transfected cells (Homo sapiens, UniProt P11362); assay: Ba/F3-FGFR1 (minus IL3) cellular proliferation assay, Alamar Blue; format: cell-based
# T1 construct: BAF3-FGFR1 (MIN IL3) pIC50; other: minus IL3
# Outline: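 Read-out: resazurin reduction, fluorescence ex 540 nm/em 590 nm after 4 h Alamar Blue at 37 °C. Before that, FGFR1-transfected Ba/F3 cells (20000/well) sat with compound for 24 h in RPMI-1640/10% FBS/2 mM L-Gln.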
# [2] = molecular target: T2, Ba/F3-FGFR3-transfected cells (Homo sapiens, UniProt P22607); assay: Ba/F3-FGFR3 (minus IL3) cellular proliferation assay, Alamar Blue; format: cell-based
# T2 construct: BAF3-FGFR3 (MIN IL3) pIC50; other: minus IL3
# Outline: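 Read-out: resazurin-based Alamar Blue fluorescence (ex 540 nm, em 590 nm) after a 4 h dye incubation. FGFR3-transfected Ba/F3 cells, 20000 per well, are exposed to compound for 24 h at 37° C in RPMI-1640/10% FBS. Plus-IL3 counterscreen adds 10 ng/ml murine IL3.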
# FGFR4 (h) = FGFR4 (h) (Homo sapiens, UniProt P22455); assay: FGFR4 (enzymatic assay), TR-FRET; format: biochemical; conditions: FGFR 4 pIC50, enzymatic assay
# FGFR3 (h) = FGFR3 (h) (Homo sapiens, UniProt P22607); assay: FGFR3 (enzymatic assay), TR-FRET; format: biochemical; conditions: read-out: FGFR 3 pIC50 (converted)
# Source text: Time-Resolved Fluorescence Resonance Energy Transfer (TR-FRET) signal (ex340 nm.
# FGFR1 (h) = FGFR1 (h) (Homo sapiens, UniProt P11362); assay: FGFR1 (enzymatic assay), TR-FRET; format: biochemical; conditions: read-out: FGFR 1 pIC50 (converted)
# [3] = molecular target: Ba/F3-FGFR4-transfected cells (Homo sapiens, UniProt P22455); assay: Ba/F3-FGFR4 cellular proliferation assay, Alamar Blue; format: cell-based
# Outline: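 Proliferation of Ba/F3-FGFR4-transfected cells is gauged by Alamar Blue (resazurin) fluorescence after 24 hours of compound treatment in phenol red free RPMI-1640 with 10% FBS.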
# [4] = test system: Ba/F3-FGFR1-transfected cells; assay: Ba/F3-FGFR1 (plus IL3) cellular proliferation assay, counterscreen with 10 ng/ml murine IL3; format: cell-based; conditions: read-out: BAF3-FGFR1 (PLUS IL3) pIC50 (converted)
# Outline: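 Ba/F3-FGFR1 cells (20000/well) in RPMI-1640 with 10% FBS exposed to compound for 24 h at 37° C., 5% CO2, then Alamar Blue (resazurin) added for 4 h; fluorescence read at ex 540/em 590 nm. Counterscreen run identically with 10 ng/ml murine IL3.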
# [5] = test system: Ba/F3-KDR-transfected cells; assay: Ba/F3-KDR (plus IL3) cellular proliferation assay, counterscreen with 10 ng/ml murine IL3; format: cell-based; conditions: read-out: BAF3-KDR (PLUS IL3) pIC50 (converted)
# Outline: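 Proliferation is measured as Alamar Blue relative fluorescence units following 24 h compound treatment of 20000 cells per well in 10% FBS medium. The IL3-supplemented run serves as a counterscreen under the same conditions.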
# KDR (h) = KDR (h) (Homo sapiens, UniProt P35968); assay: KDR (VEGFR2) (enzymatic assay), TR-FRET; format: biochemical; conditions: read-out: VEGFR 2 (KDR) pIC50 (converted)
# Outline: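 First, kinase (150 ng/ml), Btn-Flt3 (500 nM), ATP (3 μM) and compound (1% DMSO) react 120 min at RT in pH 7.5 HEPES/6 mM MnCl2. Next, EDTA with Eu-anti-P-Tyr and SA-XL-665 stops it for 60 min. Finally, TR-FRET is read as RFU.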
# [6] = average values if tested multiple times
# [7] = plus IL3 (10 ng/ml murine IL3, counterscreen)
# Ba/F3-FGFR4-transfected cells, sequence (P22455 whole entry, change not shown): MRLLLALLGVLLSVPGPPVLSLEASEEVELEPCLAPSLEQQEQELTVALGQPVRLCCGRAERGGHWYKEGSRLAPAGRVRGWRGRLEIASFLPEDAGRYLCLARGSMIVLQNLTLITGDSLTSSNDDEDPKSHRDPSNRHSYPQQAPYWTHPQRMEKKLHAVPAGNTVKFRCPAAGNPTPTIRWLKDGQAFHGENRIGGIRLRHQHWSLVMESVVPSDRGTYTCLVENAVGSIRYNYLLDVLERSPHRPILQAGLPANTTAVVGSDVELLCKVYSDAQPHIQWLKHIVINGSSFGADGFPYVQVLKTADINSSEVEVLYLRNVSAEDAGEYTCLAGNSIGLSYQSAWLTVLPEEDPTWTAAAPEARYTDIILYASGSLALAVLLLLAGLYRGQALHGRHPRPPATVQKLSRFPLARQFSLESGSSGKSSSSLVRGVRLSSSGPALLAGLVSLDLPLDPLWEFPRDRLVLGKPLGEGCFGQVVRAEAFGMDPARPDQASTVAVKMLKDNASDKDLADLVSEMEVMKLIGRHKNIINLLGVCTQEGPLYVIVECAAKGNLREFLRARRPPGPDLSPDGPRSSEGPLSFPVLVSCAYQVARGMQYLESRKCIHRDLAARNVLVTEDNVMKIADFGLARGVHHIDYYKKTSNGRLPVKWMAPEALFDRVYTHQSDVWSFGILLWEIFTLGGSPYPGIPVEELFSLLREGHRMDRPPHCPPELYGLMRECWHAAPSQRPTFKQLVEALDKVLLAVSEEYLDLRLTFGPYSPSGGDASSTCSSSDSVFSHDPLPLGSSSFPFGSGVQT
# FGFR1 (h), sequence (P11362 22-822): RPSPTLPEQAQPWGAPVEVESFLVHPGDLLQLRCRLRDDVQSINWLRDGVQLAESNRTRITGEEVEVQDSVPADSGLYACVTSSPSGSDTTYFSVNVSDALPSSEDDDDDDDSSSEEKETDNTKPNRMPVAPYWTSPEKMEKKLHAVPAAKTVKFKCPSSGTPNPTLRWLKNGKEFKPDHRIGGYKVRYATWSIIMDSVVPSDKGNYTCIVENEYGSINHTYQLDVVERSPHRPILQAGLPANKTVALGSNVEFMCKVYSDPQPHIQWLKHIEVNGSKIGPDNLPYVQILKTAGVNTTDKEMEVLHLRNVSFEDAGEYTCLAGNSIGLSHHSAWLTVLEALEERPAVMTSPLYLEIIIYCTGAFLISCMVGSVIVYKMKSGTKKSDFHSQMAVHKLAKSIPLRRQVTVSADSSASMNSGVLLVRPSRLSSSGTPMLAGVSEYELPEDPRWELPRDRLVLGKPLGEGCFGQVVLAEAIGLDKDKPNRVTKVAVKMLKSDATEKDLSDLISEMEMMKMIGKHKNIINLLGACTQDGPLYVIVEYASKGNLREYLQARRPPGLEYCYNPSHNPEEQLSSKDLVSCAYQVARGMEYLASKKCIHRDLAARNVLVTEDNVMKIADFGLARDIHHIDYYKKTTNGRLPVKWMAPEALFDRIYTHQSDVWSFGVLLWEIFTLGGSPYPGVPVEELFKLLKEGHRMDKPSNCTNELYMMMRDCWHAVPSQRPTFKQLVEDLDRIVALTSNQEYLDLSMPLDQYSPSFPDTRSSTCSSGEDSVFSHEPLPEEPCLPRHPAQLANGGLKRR
# T1 sequence (P11362 whole entry, change not shown): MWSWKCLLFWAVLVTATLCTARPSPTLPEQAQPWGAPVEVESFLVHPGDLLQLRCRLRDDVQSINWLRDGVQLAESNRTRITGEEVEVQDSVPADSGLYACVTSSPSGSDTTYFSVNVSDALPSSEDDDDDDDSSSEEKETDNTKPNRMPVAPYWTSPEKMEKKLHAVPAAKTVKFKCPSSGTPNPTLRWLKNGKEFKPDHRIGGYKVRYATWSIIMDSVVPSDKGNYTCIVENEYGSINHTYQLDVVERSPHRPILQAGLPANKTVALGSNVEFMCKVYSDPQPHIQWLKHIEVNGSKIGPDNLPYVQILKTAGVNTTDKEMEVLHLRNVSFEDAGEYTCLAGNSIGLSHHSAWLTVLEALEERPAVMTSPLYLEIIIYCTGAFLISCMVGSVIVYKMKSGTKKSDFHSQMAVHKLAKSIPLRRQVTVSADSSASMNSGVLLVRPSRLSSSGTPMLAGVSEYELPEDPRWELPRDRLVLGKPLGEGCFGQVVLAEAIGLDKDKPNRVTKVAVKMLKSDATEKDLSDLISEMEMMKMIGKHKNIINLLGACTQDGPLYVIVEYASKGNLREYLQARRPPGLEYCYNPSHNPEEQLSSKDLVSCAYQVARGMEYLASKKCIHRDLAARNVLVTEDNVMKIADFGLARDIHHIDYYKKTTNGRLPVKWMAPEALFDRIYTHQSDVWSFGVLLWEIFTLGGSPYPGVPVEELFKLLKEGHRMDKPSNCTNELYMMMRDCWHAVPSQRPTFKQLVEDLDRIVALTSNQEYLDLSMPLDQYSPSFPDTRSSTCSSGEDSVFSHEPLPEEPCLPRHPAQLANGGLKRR
# FGFR3 (h), sequence (P22607 23-806): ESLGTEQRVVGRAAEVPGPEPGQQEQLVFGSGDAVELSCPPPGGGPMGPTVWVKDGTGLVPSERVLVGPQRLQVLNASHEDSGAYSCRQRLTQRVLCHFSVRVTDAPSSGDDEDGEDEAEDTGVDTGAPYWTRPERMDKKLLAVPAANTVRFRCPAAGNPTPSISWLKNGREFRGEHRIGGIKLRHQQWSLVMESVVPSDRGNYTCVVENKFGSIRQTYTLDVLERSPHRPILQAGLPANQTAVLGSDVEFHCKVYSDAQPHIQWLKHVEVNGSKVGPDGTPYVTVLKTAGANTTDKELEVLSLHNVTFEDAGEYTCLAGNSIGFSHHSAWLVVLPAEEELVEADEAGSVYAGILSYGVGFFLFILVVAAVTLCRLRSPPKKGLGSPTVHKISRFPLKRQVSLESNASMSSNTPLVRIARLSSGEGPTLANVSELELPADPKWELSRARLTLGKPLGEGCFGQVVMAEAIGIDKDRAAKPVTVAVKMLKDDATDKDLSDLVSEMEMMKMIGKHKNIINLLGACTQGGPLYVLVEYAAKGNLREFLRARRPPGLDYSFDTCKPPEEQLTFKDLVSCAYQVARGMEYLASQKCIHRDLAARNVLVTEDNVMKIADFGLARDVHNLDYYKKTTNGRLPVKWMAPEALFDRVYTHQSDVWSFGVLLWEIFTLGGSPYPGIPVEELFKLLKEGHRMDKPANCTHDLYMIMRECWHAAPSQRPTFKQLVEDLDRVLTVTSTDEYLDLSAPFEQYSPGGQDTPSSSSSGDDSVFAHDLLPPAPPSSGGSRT
# FGFR2 (h), sequence (P21802 22-821): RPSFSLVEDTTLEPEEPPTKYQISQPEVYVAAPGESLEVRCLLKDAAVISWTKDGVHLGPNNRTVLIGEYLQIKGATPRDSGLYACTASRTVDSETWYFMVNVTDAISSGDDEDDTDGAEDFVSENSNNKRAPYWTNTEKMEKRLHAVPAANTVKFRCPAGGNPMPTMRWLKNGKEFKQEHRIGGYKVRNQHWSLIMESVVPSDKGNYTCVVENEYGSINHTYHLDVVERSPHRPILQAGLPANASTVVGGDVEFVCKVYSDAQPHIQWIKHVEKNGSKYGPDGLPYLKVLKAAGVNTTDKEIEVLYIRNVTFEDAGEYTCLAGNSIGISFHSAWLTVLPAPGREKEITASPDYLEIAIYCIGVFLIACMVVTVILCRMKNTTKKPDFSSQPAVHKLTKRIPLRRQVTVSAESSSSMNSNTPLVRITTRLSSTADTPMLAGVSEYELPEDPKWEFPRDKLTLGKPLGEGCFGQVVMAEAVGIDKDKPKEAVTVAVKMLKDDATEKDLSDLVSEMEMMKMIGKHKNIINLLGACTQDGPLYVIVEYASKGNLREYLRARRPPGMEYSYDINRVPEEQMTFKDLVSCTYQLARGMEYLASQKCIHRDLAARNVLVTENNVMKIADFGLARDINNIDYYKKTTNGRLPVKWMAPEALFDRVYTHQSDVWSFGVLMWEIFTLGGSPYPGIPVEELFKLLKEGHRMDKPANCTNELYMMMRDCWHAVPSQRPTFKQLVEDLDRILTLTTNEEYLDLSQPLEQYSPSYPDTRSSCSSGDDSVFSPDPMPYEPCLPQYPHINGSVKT
# FGFR4 (h), sequence (P22455 22-802): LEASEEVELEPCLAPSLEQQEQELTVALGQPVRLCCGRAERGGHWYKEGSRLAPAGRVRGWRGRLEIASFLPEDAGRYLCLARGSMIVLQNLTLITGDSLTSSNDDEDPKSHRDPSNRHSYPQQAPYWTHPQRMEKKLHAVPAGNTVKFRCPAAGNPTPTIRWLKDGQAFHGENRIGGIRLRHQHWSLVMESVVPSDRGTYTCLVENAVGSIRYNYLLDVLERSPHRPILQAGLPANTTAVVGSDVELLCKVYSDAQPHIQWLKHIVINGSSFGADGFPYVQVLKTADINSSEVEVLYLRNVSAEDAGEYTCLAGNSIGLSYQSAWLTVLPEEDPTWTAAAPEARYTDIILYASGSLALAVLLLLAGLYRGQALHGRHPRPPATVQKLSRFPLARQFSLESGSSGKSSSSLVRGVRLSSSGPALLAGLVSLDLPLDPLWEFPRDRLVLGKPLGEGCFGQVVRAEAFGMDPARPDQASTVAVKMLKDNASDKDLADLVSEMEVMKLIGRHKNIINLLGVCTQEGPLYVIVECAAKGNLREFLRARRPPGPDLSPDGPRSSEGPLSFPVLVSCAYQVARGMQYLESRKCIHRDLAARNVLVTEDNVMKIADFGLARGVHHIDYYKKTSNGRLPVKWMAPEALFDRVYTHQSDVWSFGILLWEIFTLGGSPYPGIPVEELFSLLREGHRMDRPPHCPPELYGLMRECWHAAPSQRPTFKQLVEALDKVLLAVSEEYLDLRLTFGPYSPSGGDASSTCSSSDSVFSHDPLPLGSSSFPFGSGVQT
Compound,IC50 (FGFR2 (h); [6]) [nM],BAF3-FGFR1 (MIN IL3) pIC50 [1],BAF3-FGFR3 (MIN IL3) pIC50 [2],IC50 (FGFR4 (h); [6]) [nM],IC50 (FGFR3 (h); [6]) [nM],IC50 (FGFR1 (h); [6]) [nM],BAF3-FGFR4 pIC50 [3],"IC50 [4, 7] [nM]","IC50 [5, 7] [nM]",IC50 (KDR (h); [6]) [nM],IC50 (FGFR2 (h)) [nM],IC50 (FGFR4 (h)) [nM],IC50 (FGFR3 (h)) [nM],IC50 (FGFR1 (h)) [nM],IC50 (KDR (h)) [nM],IC50 [4] [nM],IC50 [5] [nM]
COc1cc(OC)c(F)c(/N=c2\ccc3ncc(-c4cnn(C)c4)nc3n2CC(O)COC(C)C)c1F (stereo not drawn) [Compound 64],1.62,8.40,8.12,1,0.832,0.776,7.52,> 10000,> 10000,7.41,,,,,,,
COc1cc(OC)cc(N(CC2CCCCO2)c2ccc3ncc(-c4cnn(C)c4)nc3n2)c1 (stereo not drawn) [Compound 129],,~7.15,~7.15,,,,6.36,> 10000,> 10000,,2.4,7.76,2.69,3.47,58.9,,
CNCCN(c1ccc2ncc(-c3cnn(C)c3)nc2n1)c1cc(OC)cc(OC)c1F [Compound 39],5.37,7.97,~7.61,11,3.98,2.19,6.73,,,46.8,,,,,,> 10000,> 10000
COc1cc(OC)c(Cl)c(N(Cc2ncc[nH]2)c2ccc3ncc(-c4cnn(C)c4)nc3n2)c1 [Compound 42],2.04,8.57,~8.3,3.02,2.14,1.38,7.35,> 10000,> 10000,8.91,,,,,,,
Cn1cc(-c2cnc3ccc(N(Cc4ncc[nH]4)c4cc(F)cc(F)c4)nc3n2)cn1 [Compound 27],6.61,6.14,~6.54,11.2,3.89,19.1,6.09,> 10000,> 10000,501,,,,,,,
COc1cc(OC)c(F)c(N(Cc2ccnn2C)c2ccc3ncc(-c4cnn(C)c4)nc3n2)c1 [Compound 113],2.19,7.19,6.72,3.31,1.38,2,6.63,> 10000,> 10000,51.3,,,,,,,
CNCCN(c1ccc2ncc(-c3cnn(C)c3)nc2n1)c1c(Cl)c(OC)cc(OC)c1Cl [Compound 81],9.12,7.04,6.67,70.8,8.13,5.89,5.76,> 10000,> 10000,195,,,,,,,
COc1cc(OC)c(F)c(N(Cc2ncccn2)c2ccc3ncc(-c4cnn(C)c4)nc3n2)c1 [Compound 9],12.6,7.4,~7.2,25.1,15.8,5.62,6.79,,,50.1,,,,,,> 10000,> 10000
COc1cc(OC)c(F)c(N(Cc2nncn2C)c2ccc3ncc(-c4cnn(C)c4)nc3n2)c1 [Compound 132],,6.62,~6.64,,,,~6.13,> 10000,> 10000,,3.02,17.4,4.27,5.62,42.7,,
